Patent US12458650B2, “Urination disorder-improving agent” (ASKA Pharmaceutical Co., Ltd., priority 2019, dated 2025)

Columns and labels:
[1] = system: lower urinary tract obstruction model of rats; assay: Test Example 1: urination function in female rat lower urinary tract obstruction model (cystometry, tissue wet weights, survival); type: in vivo; conditions: 2 weeks
Excerpt: A lower urinary tract obstruction model of rats was used as a test system. A test substance was orally administered to the lower urinary tract obstruction model repeatedly over two (2) weeks to examine the action on the urination function in the lower urinary tract obstruction model.
More specifically, the rats (female, Crl:CD(SD), 8-week-old; Charles River Laboratories Japan, Inc.) were operated to form lower urinary tract obstruction and repeatedly received oral administration of the test substance at a frequency of once a day over two (2) weeks. After the completion of the administration, each rat was subjected to bladder catheterization under anesthesia, cystometry under no anesthesia, then cystometry under urethane anesthesia, and euthanasia under deep anesthesia, and the tissues (bladder, kidney) of the rat were extracted or surgically removed. As a normal group, the rats without operation for forming lower urinary tract obstruction were used.
The test system, the test substances, and the dosage are as follows. • Normal group: 0.5 v/v. Polysorbate 80 solution, 10 mL/kg (n=6) • Solvent group (control group): 0.5 v/v % Polysorbate 80 solution, 10 mL/kg (n=15) • Group A: Compound A, 10 mg/kg (n=15) • Group B3: Compound B, 3 mg/kg (n=7) • Group B10: Compound B, 10 mg/kg (n=7)
The residual urine volume, the urination efficiency, and the bladder capacity were measured as follows.
After urination, the residual urine was aspirated from the outlet end of the catheter placed in the bladder to measure the volume (mL) of the residual urine.
After urination, the weight of the voided urine was measured to determine the voided volume (g=mL), and then the urination efficiency was calculated by the following equation: Urination efficiency (%)=[(Voided volume (mL))/(Voided volume (mL)+Residual urine volume (mL))]×100 [Bladder Capacity]
The bladder capacity was calculated from the voided volume and the residual urine volume by the following equation: Bladder capacity(mL)=Voided volume (mL)+Residual urine volume (mL)
Moreover, the wet weight of the extracted bladder and that of the extracted kidney were measured.

[2] = system: model of a urination disorder associated with streptozocin-induced diabetes; assay: Test Example 6: urination disorder model associated with streptozocin-induced diabetes, compound A versus dutasteride; type: in vivo, rat
Protocol: As described below, a model of a urination disorder associated with streptozocin-induced diabetes was prepared as a urination disorder model in accordance with Test Example 4 to evaluate the effects of the compound A and the compound C on a urination disorder. This model has no benign prostatic hyperplasia and is a model of a urination disorder associated with neuropathy and smooth muscle contraction disorder.
The body weights of Rats (male, Crl:CD(SD), 5-week-old; Charles River Laboratories Japan, Inc.) were measured. On the basis of the body weight, the rats were grouped or divided into two (2) groups. The day after the rats were grouped, a fist group received intraperitoneal administration of a citrate buffer (pH 4.5) (10 mL/kg) having a concentration of 0.1 mmol/L, and a second group received intraperitoneal administration of streptozocin (STZ; Sigma-Aldrich) (50 mg/kg). Streptozocin (STZ) was administered in the form of a solution of streptozocin having a concentration of 5 mg/mL in the citrate buffer.
About one (1) week after streptozocin (STZ) was administered, the body weight and the fasting blood glucose were measured. In the streptozocin (STZ) administration group (the second group), individuals having a fasting blood glucose level of not less than 300 mg/dL were used as animals with induced diabetes. These animals with induced diabetes are a model having no abnormality of the prostate (having no benign prostatic hyperplasia). On the basis of the body weight and the fasting blood glucose level, the animals (models) with induced diabetes were grouped or divided into three (3) groups by randomized, multivariable block allocation.
To the three model groups with induced diabetes, a 0.5 v/v % Polysorbate 80 solution (0.5% P) (10 mL/kg), the compound A (3 mg/kg), and the compound C (dutasteride) (0.3 mg/kg) were orally administered, respectively, wherein the administration schedule in all groups was a frequency of once a day, only on weekdays, over four (4) weeks. Moreover, to the above-mentioned first group, a 0.5 v/v % Polysorbate 80 solution (0.5% P) (10 mL/kg) was orally administered in the same administration schedule (normal group). On the last day of administration, a cannula was inserted into and secured to the dome of the bladder under isoflurane anesthesia, and cystometry (Cystometogram, CMG) was conducted in the order of under awake condition and under urethane anesthesia to measure the intravesical pressure, the voided volume, and the residual urine volume. After the completion of the measurement, the blood was collected under deep isoflurane anesthesia, and then the prostate (ventral prostate, dorsolateral prostate) was extracted and each was weighed. Moreover, the blood glucose level in the collected blood was measured.
The test substances and the dosage in the test system (rats having the urination disorder associated with diabetes) are as follows. • Normal group: citrate buffer 10 mL/kg (intraperitoneal administration), 0.5% P 10 mL/kg (oral administration) (n=10) • Solvent group (control group): STZ 50 mg/kg (intraperitoneal administration), 0.5% P 10 mL/kg (oral administration) (n=10) • Group A3: STZ 50 mg/kg (intraperitoneal administration), Compound A 3 mg/kg (oral administration) (n=10) • Group C0.3: STZ 50 mg/kg (intraperitoneal administration), Compound C (dutasteride) 0.3 mg/kg (oral administration) (n=10)
Urination parameter: In the same manner as in Test Example 4, the residual urine volume (mL) and the urination efficiency % were determined as urination parameters in each urination, and the average value of two measurements was taken as a measured value of each individual.
Prostate weight: In the same manner as in Test Example 4, the weight of the prostate (ventral prostate, dorsolateral prostate, and whole) was converted to a tissue weight per 100 g of the body weight. […]

[3] = system: uterine weight associated with rat deciduoma formation; assay: Test Example 5: antiprogesterone activity, uterine weight associated with rat deciduoma formation in ovariectomized rats; type: in vivo; conditions: 192 h, Group D: 3 mg/kg oral once a day, 8 days, ovariectomized female rats, compared with solvent group, FIG. 18, read-out: inhibition rate of uterine weight increase (antiprogesterone action)
Protocol: For the compound A and the compound D (mifepristone), the antiprogesterone activity was measured. Specifically, a sex hormone and a test substance were repeatedly administered to ovariectomized rats as a test system to examine the antiprogesterone action (antiprogesterone activity) based on, as an index, the fluctuation of the uterine weight (the inhibitory action relative to the increase of the weight) associated with rat deciduoma formation.
More specifically, rats (female, Crl:CD(SD), 5-week-old: Charles River Laboratories Japan, Inc.) were subjected to ovariectomy, and from one (1) week after the ovariectomy, a high dose estrone or 5 μg/one animal was hypodermically administered to the rats once a day for three (3) days. From the day after one day rest period, the rats received, once a day over eight (8) days, hypodermic administration of a low dose estrone (1 μg/one animal), intramuscular administration of progesterone (6 mg/kg), and oral administration of a test substance. In the middle of the administration, on Day 4 of the start of administration, the rats were subjected to a stimulation treatment of decidualization reaction to the right uterus. The day after the final administration, the uterine weight (right uterine body) was measured (n=6). Group E was subjected to ovariectomy and a stimulation treatment of decidualization reaction but was not subjected to a hormone treatment.
The test substances and the dosage in the test system (ovariectomized rats) are as follows. • Group E: rats with ovariectomy without hormone treatment • 0.5 v/v % Polysorbate 80 solution, 10 mL/kg (n=6) • Solvent group (control group): 0.5 v/v % Polysorbate 80 solution, 10 mL/kg (n=6) • Group A3: Compound A, 3 mg/kg (n=6) • Group A10: Compound A, 10 mg/kg (n=6) • Group A30: Compound A, 30 mg/kg (n=6) • Group D: Compound D (mifepristone), 3 mg/kg (n=6)

[4] = Group C0.3: 0.3 mg/kg oral, 4 weeks, relative to solvent group

For `CC(=O)O[C@]1(C(C)=O)CC[C@H]2[C@@H]3C=C(Cl)C4=CC(=O)OC[C@]4(C)[C@H]3CC[C@@]21C` [Compound B, 17α-acetoxy-6-chloro-2-oxa-4,6-pregnadiene-3,20-dione, reference compound], the residual urine volume ([1]; Groups B3 and B10: 3 mg/kg and 10 mg/kg oral once a day, vs control group, FIG. 1) was “significantly increased”, the urination efficiency ([1]; Groups B3 and B10: 3 mg/kg and 10 mg/kg oral once a day, vs control group, FIG. 2) was “reduced” and the bladder capacity ([1]; Groups B3 and B10: 3 mg/kg and 10 mg/kg oral once a day, vs control group, FIG. 3) was “significantly increased”. The bladder wet weight ([1]; Groups B: 3 mg/kg and 10 mg/kg oral once a day, FIG. 4) was “in the direction of increasing”, the kidney wet weight ([1]; Groups B: 3 mg/kg and 10 mg/kg oral once a day, FIG. 5) was “in the direction of increasing” and the survival rate ([1]; Groups B: 3 mg/kg and 10 mg/kg oral once a day, FIG. 6) was “decreased”.
With `C[C@]12C=CC(=O)N[C@@H]1CC[C@@H]1[C@@H]2CC[C@]2(C)[C@@H](C(=O)Nc3cc(C(F)(F)F)ccc3C(F)(F)F)CC[C@@H]12` [Compound C, dutasteride, reference compound] the “therapeutic effect on diabetes (blood glucose level)” value ([2]; Group C0.3: 0.3 mg/kg oral, 4 weeks) was “no therapeutic effect on diabetes”, the “Dorsolateral prostate (atrophy rate)” value [2, 4] was “(37.5%)” and the “Ventral prostate (atrophy rate)” value [2, 4] was “(42.7%)”. For the same compound, the “Whole prostate (atrophy rate)” value [2, 4] was “(40.7%)”, the “bladder contraction force on urination by nomogram analysis (distance from the origin)” value ([2]; Group C0.3: 0.3 mg/kg, FIG. 21) was “almost the same position as the solvent group” and the residual urine volume ([2]; Group C0.3: 0.3 mg/kg, cystometry under awake condition, vs solvent group, FIG. 19) was “did not statistically affect”. The urination efficiency ([2]; Group C0.3: 0.3 mg/kg, cystometry under awake condition, vs solvent group, FIG. 20) was “did not statistically affect”.
In the case of `CC#C[C@]1(O)CC[C@H]2[C@@H]3CCC4=CC(=O)CCC4=C3[C@@H](c3ccc(N(C)C)cc3)C[C@@]21C` [Compound D, mifepristone, reference compound], the inhibition at 3 mg/kg [3] is reported as 89.5%.
